# Results as given in patent US12226401B2, “Molecular genetic approach to treatment and diagnosis of alcohol and drug dependence” (priority 2010, dated 2025).
# Test system: alcohol dependent individuals
# Assay: Randomized, double-blind, placebo-controlled, 12-week clinical trial of ondansetron vs placebo in alcohol dependent individuals by genotype: drinks per drinking day (DDD)
# Assay type: in vivo, human
# Settings: for Least Squares Mean of Drinks per Drinking Days, Estimated Mean: Table 4B; for Least Squares Mean Difference, Drinks per Drinking Days, OND vs. Placebo: all patients (treatment main effect); for Log mean Drinks/Drinking Day: natural log
# Protocol: Two hundred and seventy eight male and female alcohol dependent individuals were entered into a randomized, double-blind, placebo-controlled, 12-week clinical trial. These individuals were divided into TT vs. […] The polymorphisms in 3''-UTR region of a gene may affect mRNA expression levels by altering their stability. […] Data was transformed to its natural log to correct for skewness. […] In total, ten SNPs in 5HT3a and nine SNPs in 5HT3b genes were analyzed in this study: […]
compound,measurement,setting,value
"Cc1nccn1CC1CCc2c(c3ccccc3n2C)C1=O (stereo not drawn) [ondansetron, 9-methyl-3-[(2-methyl-1H-imidazol-1-yl)methyl]-1,2,3,9-tetrahydrocarbazol-4-one]","Least Squares Mean, Drinks per Drinking Days",RS17614942 CC,6.03
same,"Least Squares Mean, Drinks per Drinking Days",RS17614942 CC/AA,6.09
same,"Estimate, OND vs. Placebo, drinks per drinking days (DDD)","TT + AA (RS1042173, RS1176719)",−7.12 DDD
same,"Estimate, OND vs. Placebo, drinks per drinking days (DDD)","TT + AC (RS1042173, RS17614942)",−3.37 DDD
same,"Estimate, OND vs. Placebo, drinks per drinking days (DDD)","TT + AG (RS1042173, RS1150226)",−2.00 DDD
same,"Estimate, OND vs. Placebo, drinks per drinking days (DDD)","TT + AG + AC (RS1042173, RS1150226, RS17614942)",−2.24 DDD
same,"Estimate, OND vs. Placebo, drinks per drinking days (DDD)","TT + GG (RS1042173, RS1176713)",−6.42 DDD
same,"Estimate, OND vs. Placebo, drinks per drinking days (DDD)","TT or AA or AC (RS1042173, RS1176719, RS17614942)",−1.08 DDD
same,"Estimate, OND vs. Placebo, drinks per drinking days (DDD)","TT or AC (RS1042173, RS17614942)",−1.07 DDD
same,"Estimate, OND vs. Placebo, drinks per drinking days (DDD)","TT or AG (RS1042173, RS1150226)",−1.02 DDD
same,"Estimate, OND vs. Placebo, drinks per drinking days (DDD)","TT or AG or AC (RS1042173, RS1150226, RS17614942)",−0.99 DDD
same,"Estimate, OND vs. Placebo, drinks per drinking days (DDD)","TT or AG or GG (RS1042173, RS1150226, RS1176713)",−1.12 DDD
same,"Estimate, OND vs. Placebo, drinks per drinking days (DDD)","TT or GG (RS1042173, RS1176713)",−1.02 DDD
same,"Estimate, OND vs. Placebo, drinks per drinking days (DDD)","TT or GG or AC (RS1042173, RS1176713, RS17614942)",−1.12 DDD
same,"Least Squares Mean Difference, Estimated Mean Difference, AG vs. GG/AA","Table 3G, among OND-treated subjects, AG vs. GG/AA genotype",−1.90
same,"Least Squares Mean of Drinks per Drinking Days, Estimated Mean","Others (AA/GG and AA/CC), n = 112",6.12
same,"Least Squares Mean of Drinks per Drinking Days, Estimated Mean","RS1150226 AG or RS17614942 AC carriers, n = 23",4.19
same,"Least Squares Mean of Drinks per Drinking Days, Estimated Mean","all OND subjects, RS1150226 (AG) or RS17614942 (AC) analysis",5.16
same,"Least Squares Mean Difference between Treatment and Placebo, Estimated Mean Difference","Table 4C, OND vs. Placebo among AG or/and AC (RS1150226 AG, RS17614942 AC)",−2.12
same,"Least Squares Mean Difference between Treatment and Placebo, Estimated Mean Difference","Table 4C, OND vs. Placebo, all genotypes (main effect)",−0.99
same,"Least Squares Mean Difference, Estimated Mean Difference, (AG or AC) vs. Others","Table 4C, among OND-treated subjects, (AG or AC) vs. Others",−1.91
same,"Least Squares Mean, Drinks per Drinking Days","all OND patients, model Comb (LL + TT or AC or AG) vs Others",5.32
same,"Least Squares Mean, Drinks per Drinking Days","all OND patients, model RS1150226 (GG, AG/AA)",5.15
same,"Least Squares Mean, Drinks per Drinking Days","all OND patients, model RS1150226 (GG/AA, AG)",5.13
same,"Least Squares Mean, Drinks per Drinking Days","all OND patients, model RS17614942 (CC, AC/AA)",4.96
same,"Least Squares Mean, Drinks per Drinking Days","all OND patients, model RS17614942 (CC/AA, AC)",4.98
same,DDD reductions with OND,"all four variants (LL, TT, AG, AC)",more than 4 DDD
same,"Least Squares Mean Difference, Drinks per Drinking Days, OND vs. Placebo","model RS17614942 (CC, AC/AA)",−1.20
same,"Least Squares Mean Difference, Drinks per Drinking Days, OND vs. Placebo","model RS17614942 (CC/AA, AC)",−1.30
same,"Drinks per Drinking Days, Least Squares Estimated Mean Difference","among AC/AA: OND vs. Placebo, model RS17614942",−2.04
same,"Drinks per Drinking Days, Least Squares Estimated Mean Difference","among AC/AA: OND vs. Placebo, model RS17614942 and 5-HTTLPR",−2.13
same,"Drinks per Drinking Days, Least Squares Estimated Mean Difference","among CT/TT: OND vs. Placebo, model RS4938056 and 5-HTTLPR",−0.81
same,"Drinks per Drinking Days, Least Squares Estimated Mean Difference","among LL: OND vs. Placebo, model 5-HTTLPR and RS1062613",−1.29
same,"Drinks per Drinking Days, Least Squares Estimated Mean Difference","among LL: OND vs. Placebo, model 5-HTTLPR and RS1150226",−1.47
same,"Drinks per Drinking Days, Least Squares Estimated Mean Difference","among LL: OND vs. Placebo, model RS17614942 and 5-HTTLPR",−1.86
same,"Drinks per Drinking Days, Least Squares Estimated Mean Difference","among OND: AC/AA vs. CC, model RS17614942",−1.60
same,"Drinks per Drinking Days, Least Squares Estimated Mean Difference","among OND: AC/AA vs. CC, model RS17614942 and 5-HTTLPR",−1.45
same,"Drinks per Drinking Days, Least Squares Estimated Mean Difference","among OND: AG/AA vs. GG, model 5-HTTLPR and RS1150226",−1.25
same,"Drinks per Drinking Days, Least Squares Estimated Mean Difference","among OND: AG/AA vs. GG, model RS1150226",−1.47
same,"Drinks per Drinking Days, Least Squares Estimated Mean Difference","among OND: CT/TT vs. CC, model RS4938056",−1.24
same,"Drinks per Drinking Days, Least Squares Estimated Mean Difference","among OND: CT/TT vs. CC, model RS4938056 and 5-HTTLPR",−1.13
same,"Drinks per Drinking Days, Least Squares Estimated Mean Difference","among OND: LL + CT/TT vs. Others, simplified model",−1.64
same,"Drinks per Drinking Days, Least Squares Estimated Mean Difference","among OND: LL vs. LS/SS, model 5-HTTLPR and RS1062613",−1.39
same,"Drinks per Drinking Days, Least Squares Estimated Mean Difference","among OND: LL vs. LS/SS, model 5-HTTLPR and RS1150226",−1.27
same,"Drinks per Drinking Days, Least Squares Estimated Mean Difference","among OND: LL vs. LS/SS, model RS4938056 and 5-HTTLPR",−1.37
same,"Drinks per Drinking Days, Least Squares Estimated Mean Difference","among OND: LL vs. LS/SS, model RS17614942 and 5-HTTLPR",−1.33
same,"Drinks per Drinking Days, Least Squares Estimated Mean Difference","among OND: TC/CC vs. TT, model 5-HTTLPR and RS1062613",−1.05
same,"Drinks per Drinking Days, Least Squares Estimated Mean Difference","among OND: TC/CC vs. TT, model RS1062613",−1.06
same,"Drinks per Drinking Days, Least Squares Estimated Mean Difference","among TC/CC: OND vs. Placebo, model 5-HTTLPR and RS1062613",−1.10
same,"Drinks per Drinking Days, Least Squares Estimated Mean Difference","among TC/CC: OND vs. Placebo, model RS1062613",−0.90
same,"DDD reduction, OND compared to placebo","any one of three variants: 5-HTTLPR [LL], RS1150226 [AG], RS17614942 [AC]",at least 1.4 DDD
same,"DDD reduction, OND compared to placebo","any two of the three variants (LL, AG, AC)",at least 2.4 DDD
same,DDD reductions with OND,"any two of three variants: 5-HTTLPR (LL), RS1042173 (TT), RS1176713 (GG)",at least 2 DDD
same,DDD reductions with OND,either 5-HTTLPR (LL) or RS1176713 (GG),at least 1.4 DDD
same,DDD reductions with OND,"either one or two or three or four of the four variants (LL, TT, AG, AC)",at least 0.9 DDD
same,DDD reductions with OND,"either three of the four variants (LL, TT, AG, AC)",more than 2 DDD
same,DDD reductions with OND,"either two of four variants: 5-HTTLPR (LL), RS1042173 (TT), RS1150226 (AG), RS17614942 (AC)",at least 2 DDD
same,"DDD reductions, OND compared to placebo","one or two of the three variants (LL, AG, AC)",about 1.4 DDD
same,Response to Ondansetron treatment,"one or two or three of 5-HTTLPR [LL], RS1150226 [AG], RS17614942 [AC], 120 patients",seemed to respond
same,"DDD reductions, OND compared to placebo","one or two or three of the three variants (LL, AG, AC)",at least 1.4 DDD
same,Response to OND treatment,"one or two or three or four of 5-HTTLPR (LL), RS1042173 (TT), RS1176719 (AA), RS17614942 (AC)",likely to respond
same,DDD reductions with OND,"one, or two or three of the three variants (LL, TT, RS1176713 GG)",at least 0.9 DDD
same,"DDD reduction, OND compared with placebo groups","patients who had LL+TT or RS17614942 (AC) or RS1150226 (AG), 84 of 273 patients",at least 1.75 DDD
same,"Estimate, OND vs. Placebo, drinks per drinking days (DDD)",patients with 5-HTTLPR (LL),−1.41 DDD
same,"DDD reductions, OND compared to placebo",patients with either 5-HTTLPR (LL) or RS1150226 (AG) or RS17614942 (AC),at least 1.4 DDD
same,Log mean Drinks/Drinking Day,printed 'TT/GG and group' (rs1042173),1.68±0.07 Drinks/Drinking Day
same,Estimated mean DDD difference for OND vs. placebo,"regardless of rs17614942 genotypes, 5HT3b cohort",−1.15
same,"Log mean difference in Drinks/Drinking Day, TTond vs TG/GG ond","rs1042173, among ondansetron recipients, 95% CI -0.53 to -0.13, p=0.002",−0.33
same,"Reducing severe drinking vs placebo (Log Drinks/Drinking day, mixed model)","rs1042173 TT genotype, ondansetron 4 mcg/kg, p=0.028",more beneficial than placebo
same,Log mean Drinks/Drinking Day,rs1042173 TT group that received ondansetron 4 mcg/kg,1.36±0.10 Drinks/Drinking Day
same,"Reduction of DDD by ondansetron, C-carriers compared with TT subjects",rs1062613 (5HT3a),1.17 sd
same,"Reduction of DDD by ondansetron, AG/AA compared to GG subjects",rs1150226 (5HT3a),1.74 sd
same,"Reduction of DDD by ondansetron, T-carriers compared with CC subjects",rs4938056 (5HT3b),1.30 sd
same,"Reduction in DDD, AC/AA treated with ondansetron compared to CC subjects",rs17614942 (5HT3b),1.97 sd
same,"Least Squares Mean Difference, Drinks per Drinking Days, AG/AA vs. GG","second AG/AA vs. GG line printed under Among OND, RS1150226",−0.98
same,"DDD reduction, OND compared to placebo","the three variants (LL, AG, AC)",at least 4 DDD
same,DDD reductions with OND,"the three variants (LL, TT, RS1176713 GG)",at least 7 DDD
same,Reduction of DDD by ondansetron compared to the placebo,within AC/AA group of rs17614942,2.41 sd
same,Reduction of DDD by ondansetron compared to the placebo,within AG/AA group of rs1150226,1.57 sd
same,"Least square Mean difference in DDD, ondansetron vs placebo",within LL+AC/AA group (5HTTLPR + rs17614942),3.6 sd
same,"Least square Mean difference in DDD, ondansetron vs placebo",within LL+CT/TT group (5HTTLPR + rs4938056),1.74 sd
